Converted amounts (≈) assume the structure as drawn. The source made the active and inactive calls. No cut-off for these calls is given here. Some results are limits rather than exact numbers.

Series [1] is described as follows: Acid dissociation constant, pKa by pressure-assisted capillary electrophoresis method. It counts as physicochemical.
The test system of series [2] is Staphylococcus aureus. The experiment in a line: Antibacterial activity against Staphylococcus aureus UC9218. It counts as functional.
Series [3] deals with T1, Albumin (Homo sapiens, UniProt P02768). Description: Displacement of fluorescent dansyl sarcosine from human serum albumin site II on subdomain IIIA.
T1 sequence (P02768 whole entry): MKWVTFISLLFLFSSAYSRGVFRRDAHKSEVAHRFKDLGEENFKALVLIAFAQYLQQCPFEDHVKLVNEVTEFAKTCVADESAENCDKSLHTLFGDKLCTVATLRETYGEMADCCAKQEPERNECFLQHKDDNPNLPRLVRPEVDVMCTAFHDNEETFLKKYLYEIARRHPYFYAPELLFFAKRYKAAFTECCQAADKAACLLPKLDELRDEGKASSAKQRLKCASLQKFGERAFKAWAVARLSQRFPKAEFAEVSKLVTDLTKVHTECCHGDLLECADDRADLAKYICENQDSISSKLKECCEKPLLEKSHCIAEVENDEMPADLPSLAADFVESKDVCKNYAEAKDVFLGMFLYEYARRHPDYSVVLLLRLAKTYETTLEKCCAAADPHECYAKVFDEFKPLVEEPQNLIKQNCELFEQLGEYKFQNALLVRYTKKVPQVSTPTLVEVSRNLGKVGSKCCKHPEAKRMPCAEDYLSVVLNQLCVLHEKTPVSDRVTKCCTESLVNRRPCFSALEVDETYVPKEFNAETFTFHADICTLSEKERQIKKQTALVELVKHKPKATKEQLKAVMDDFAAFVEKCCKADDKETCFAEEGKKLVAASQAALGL
Series [4] concerns Staphylococcus aureus. The experiment in a line: Antibacterial activity against Staphylococcus aureus UC9218 in presence of 5% human serum. In kind it is functional.
Series [5] concerns Staphylococcus aureus. Description: Antibacterial activity against Staphylococcus aureus UC9218 in presence of 10% human serum. It counts as functional.
In series [6] the target is T1, Albumin. Description: Binding to high affinity site of human serum albumin. It counts as ADME.
For series [7], the system named is Staphylococcus aureus. The experiment in a line: Antibacterial activity against Staphylococcus aureus in mouse bacteremia model. It counts as functional.

The compound `O=C(Nc1ccc(Br)cc1C(=O)O)c1cccc(S(=O)(=O)N2CCOCC2)c1` registered a pKa in series [1] of 2.79. For the same compound, the figures for the MIC against Staphylococcus aureus [2] and in the series on Staphylococcus aureus [4] were 4 µg/mL (≈ 8.52 µM) and 32 µg/mL, respectively. Also, the Kd at Albumin [3] was 4.8 µM.

Regarding `O=C(Nc1ccc(Br)cc1C(=O)O)c1ccc(S(=O)(=O)N2CCc3cc(Cl)ccc32)cc1`, the figures for the MIC in the series with Staphylococcus aureus [2] and in the series with Staphylococcus aureus [5] were 0.125 µg/mL (≈ 0.233 µM) and 64 µg/mL, respectively.

As to `N#Cc1ccc(NC(=O)c2ccc(S(=O)(=O)N3CCOCC3)cc2)c(C(=O)O)c1`, the pKa in series [1] was found to be 2.56. Further, the minimal inhibitory concentration (MIC) in the series with Staphylococcus aureus [2] stood at 1 µg/mL (≈ 2.41 µM); in the series on Staphylococcus aureus [4], 2 µg/mL; in the series on Staphylococcus aureus [5], 4 µg/mL. In addition, the Kd amounted to 5.3 µM at Albumin [3] and 14 µM at Albumin [6]. In the series on Staphylococcus aureus [7], this compound came in with an ED50 greater than 200 mg/kg.

In turn, `Cc1ccc(NC(=O)c2cccc(S(=O)(=O)N3CCOCC3)c2)c(C(=O)O)c1` displayed a pKa in series [1] of 3.36. The MIC in the series with Staphylococcus aureus [2] and in the series with Staphylococcus aureus [4] was greater than 128 µg/mL in each case. This compound also returned a Kd on Albumin [3] of 7.5 µM.

With `O=C(Nc1ccccc1C(=O)O)c1cccc(S(=O)(=O)N2CCOCC2)c1`, the pKa in series [1] was 3.18. Moreover, the MIC against Staphylococcus aureus [2] and with Staphylococcus aureus [4] was greater than 128 µg/mL each time. The same compound yielded a Kd on Albumin [3] of 6 µM.

`CCCN(CCC)S(=O)(=O)c1ccc(C(=O)Nc2cc3ccccc3cc2C(=O)O)cc1`: the MIC is 32 µg/mL (≈ 70.4 µM) against Staphylococcus aureus [2] and greater than 64 µg/mL in the series on Staphylococcus aureus [5].

With `N#Cc1ccc(NC(=O)c2ccc(S(=O)(=O)N3CCc4cc(Cl)ccc43)cc2)c(C(=O)O)c1`, the MIC with Staphylococcus aureus [2] was 0.125 µg/mL (≈ 0.259 µM); in the series with Staphylococcus aureus [5] it was 8 µg/mL. The outcome in the series on Staphylococcus aureus [7] was inactive.

Compound `COc1ccc(NC(=O)c2cccc(S(=O)(=O)N3CCOCC3)c2)c(C(=O)O)c1` came in with a pKa in series [1] of 3.12. For the same compound, the MIC against Staphylococcus aureus [2] and with Staphylococcus aureus [4] was greater than 128 µg/mL in each case. The same compound had a Kd on Albumin [3] of 8.1 µM.

Consider `N#Cc1ccc(NC(=O)c2cc(SCc3ccccc3)on2)c(C(=O)O)c1`, for which the MIC with Staphylococcus aureus [2] was 0.125 µg/mL (≈ 0.329 µM); with Staphylococcus aureus [5] it was 4 µg/mL.

As to `N#Cc1ccc(NC(=O)c2ccc(S(=O)(=O)N3CCCC3)cc2)c(C(=O)O)c1`, the MIC in the series with Staphylococcus aureus [2] came to 1 µg/mL (≈ 2.5 µM); in the series with Staphylococcus aureus [5], 8 µg/mL. In addition, the result with Staphylococcus aureus [7] was inactive.

As to `O=C(Nc1ccc(F)cc1C(=O)O)c1cccc(S(=O)(=O)N2CCOCC2)c1`, the pKa in series [1] came out at 2.92. The MIC is 128 µg/mL (≈ 313 µM) against Staphylococcus aureus [2] and 128 µg/mL with Staphylococcus aureus [4]. Besides, the equilibrium dissociation constant (Kd) at Albumin [3] came to 6.6 µM.

Consider `O=C(Nc1ccc(Cl)cc1C(=O)O)c1cccc(S(=O)(=O)N2CCOCC2)c1`, for which the pKa in series [1] turned out to be 2.81. In addition, the MIC was determined as 4 µg/mL (≈ 9.41 µM) in the series with Staphylococcus aureus [2] and 32 µg/mL with Staphylococcus aureus [4]. At Albumin [3], this compound yielded a Kd of 6.5 µM.

On to `O=C(Nc1ccc([N+](=O)[O-])cc1C(=O)O)c1cccc(S(=O)(=O)N2CCOCC2)c1`, for which the pKa in series [1] is 3.44. For the same compound, the MIC was found to be 4 µg/mL (≈ 9.19 µM) in the series with Staphylococcus aureus [2] and 16 µg/mL with Staphylococcus aureus [4]. Besides, binding on Albumin [3] was put at a Kd of 4.4 µM.

As a reminder, the pKa is the negative logarithm of the acid dissociation constant. A high value points to a weaker acid or stronger base. By MIC is commonly meant the lowest concentration that inhibits growth of the organism. What is called Kd is a measure of binding affinity in units of concentration. As a reminder, the ED50 is the midpoint of the dose-response relation. Higher therefore signals weaker potency.

Source of the values: ChEMBL document CHEMBL1139792, “Correlation of carboxylic acid pKa to protein binding and antibacterial activity of a novel class of bacterial translation inhibitors” (Bioorg Med Chem Lett, 2007).
